Data published in the supplement of paper PMC6045584.
± gives the standard deviation of the averaged measurements.

How the values were obtained:
MLN-4924 = compound: NS(=O)(=O)OC[C@@H]1C[C@@H](n2ccc3c(N[C@H]4CCc5ccccc54)ncnc32)C[C@@H]1O [MLN-4924]; test: surviving fraction relative to DMSO-only wells; higher = less growth inhibition; conditions: exposure time: 5 days
Outline: (§1)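 Viability was determined by CellTiter-Glo luminescence, expressed as surviving fraction normalised to the median of DMSO-only wells. The cells were log-phase tumour cell lines seeded at 250–500 per well in 384-well plates and, after 24 hours, exposed continuously for five days to inhibitors at 0.5, 1, 5, 10, 50, 100, 500 and 1000 nM. Three screens per line were run, keeping only lines with replicate Pearson r >0.7 and median Z' >0.3.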

FORETINIB = compound: COc1cc2c(Oc3ccc(NC(=O)C4(C(=O)Nc5ccc(F)cc5)CC4)cc3F)ccnc2cc1OCCCN1CCOCC1 [FORETINIB]; test: as above; conditions: exposure time: 5 days
Outline: as §1

| Test System | surviving fraction (MLN-4924; 0.5 nM) | surviving fraction (MLN-4924; 1 nM) | surviving fraction (MLN-4924; 5 nM) | surviving fraction (MLN-4924; 10 nM) | surviving fraction (MLN-4924; 50 nM) | surviving fraction (MLN-4924; 100 nM) | surviving fraction (MLN-4924; 500 nM) | surviving fraction (MLN-4924; 1000 nM) | surviving fraction (FORETINIB; 0.5 nM) | surviving fraction (FORETINIB; 1 nM) | surviving fraction (FORETINIB; 5 nM) | surviving fraction (FORETINIB; 10 nM) | surviving fraction (FORETINIB; 50 nM) | surviving fraction (FORETINIB; 100 nM) | surviving fraction (FORETINIB; 500 nM) | surviving fraction (FORETINIB; 1000 nM) |
| --- | --- | --- | --- | --- | --- | --- | --- | --- | --- | --- | --- | --- | --- | --- | --- | --- |
| 22RV1 PROSTATE | 1.07 ± 0.05 | 0.967 ± 0.15 | 1.03 ± 0.12 | 0.81 ± 0.1 | 0.653 ± 0.048 | 0.47 ± 0.055 | 0.283 ± 0.058 | 0.26 ± 0.13 | 1.02 ± 0.065 | 1.04 ± 0.033 | 0.98 ± 0.15 | 0.984 ± 0.043 | 0.965 ± 0.12 | 0.99 ± 0.17 | 0.611 ± 0.061 | 0.511 ± 0.015 |
| 93VU HEADNECK | 1.01 ± 0.083 | 1.11 ± 0.068 | 1.09 ± 0.047 | 1.1 ± 0.051 | 0.828 ± 0.079 | 0.533 ± 0.034 | 0.166 ± 0.015 | 0.133 ± 0.0059 | 1.21 ± 0.1 | 1.21 ± 0.048 | 1.2 ± 0.13 | 1.07 ± 0.039 | 1.04 ± 0.024 | 1.04 ± 0.025 | 0.849 ± 0.13 | 0.224 ± 0.076 |
| 143B BONE | 1.03 ± 0.023 | 1.01 ± 0.034 | 1.04 ± 0.033 | 1.018 ± 0.0099 | 0.961 ± 0.042 | 0.699 ± 0.028 | 0.062 ± 0.0042 | 0.033 ± 0.0028 | 1.05 ± 0.046 | 1.03 ± 0.033 | 1.04 ± 0.015 | 1.02 ± 0.05 | 1.01 ± 0.0099 | 1.038 ± 0.0035 | 0.86 ± 0.015 | 0.755 ± 0.03 |
| A549 LUNG | 1.061 ± 0.0093 | 1.05 ± 0.034 | 1.04 ± 0.023 | 1 ± 0.034 | 1.11 ± 0.041 | 1.1 ± 0.024 | 0.781 ± 0.011 | 0.417 ± 0.044 | 1.083 ± 0.0085 | 1.1 ± 0.018 | 1.08 ± 0.028 | 1.05 ± 0.016 | 1.06 ± 0.045 | 1.06 ± 0.041 | 0.703 ± 0.012 | 0.542 ± 0.021 |
| ASKA SYNOVIAL | 1.11 ± 0.025 | 1.01 ± 0.02 | 1.08 ± 0.14 | 1.151 ± 0.011 | 0.946 ± 0.18 | 0.486 ± 0.08 | 0.33 ± 0.04 | 0.348 ± 0.019 | 1.11 ± 0.065 | 1.14 ± 0.037 | 1.06 ± 0.085 | 1.07 ± 0.075 | 1.13 ± 0.042 | 1.03 ± 0.044 | 0.371 ± 0.026 | 0.297 ± 0.0071 |
| BT20 BREAST | 1.13 ± 0.042 | 1.168 ± 0.0072 | 1.13 ± 0.073 | 1.16 ± 0.1 | 1.2 ± 0.084 | 1.23 ± 0.18 | 0.989 ± 0.098 | 0.645 ± 0.044 | 1.11 ± 0.032 | 1.14 ± 0.13 | 1.12 ± 0.026 | 1.13 ± 0.045 | 1.22 ± 0.12 | 1.13 ± 0.037 | 0.382 ± 0.091 | 0.136 ± 0.017 |
| BT549 BREAST | 1.05 ± 0.043 | 1 ± 0.19 | 1.02 ± 0.064 | 0.957 ± 0.052 | 0.732 ± 0.14 | 0.575 ± 0.062 | 0.194 ± 0.067 | 0.148 ± 0.046 | 1.09 ± 0.059 | 1.08 ± 0.059 | 1.09 ± 0.15 | 1.12 ± 0.089 | 1.08 ± 0.12 | 1.15 ± 0.12 | 0.701 ± 0.022 | 0.222 ± 0.014 |
| C33A CERVIX | 0.905 ± 0.042 | 0.916 ± 0.093 | 0.929 ± 0.13 | 0.952 ± 0.11 | 0.542 ± 0.032 | 0.358 ± 0.027 | 0.132 ± 0.026 | 0.0803 ± 0.028 | 1.02 ± 0.059 | 1.06 ± 0.086 | 1.1 ± 0.042 | 1.14 ± 0.098 | 1.03 ± 0.041 | 1.04 ± 0.047 | 0.596 ± 0.057 | 0.508 ± 0.029 |
| CADOES1 SOFT TISSUE | 0.993 ± 0.094 | 0.97 ± 0.047 | 0.913 ± 0.052 | 0.787 ± 0.057 | 0.879 ± 0.057 | 0.812 ± 0.082 | 0.0993 ± 0.014 | 0.053 ± 0.007 | 0.986 ± 0.23 | 0.887 ± 0.17 | 0.988 ± 0.25 | 0.876 ± 0.043 | 0.947 ± 0.02 | 0.795 ± 0.1 | 0.109 ± 0.011 | 0.088 ± 0.0062 |
| CAL51 BREAST | 1.01 ± 0.035 | 1.01 ± 0.045 | 1.06 ± 0.025 | 1.01 ± 0.051 | 0.922 ± 0.067 | 0.702 ± 0.085 | 0.2 ± 0.022 | 0.128 ± 0.012 | 0.991 ± 0.039 | 0.964 ± 0.053 | 1.04 ± 0.011 | 0.9858 ± 0.0063 | 0.993 ± 0.064 | 0.979 ± 0.052 | 0.162 ± 0.0044 | 0.136 ± 0.01 |
| CAL72 BONE | 1.02 ± 0.11 | 0.996 ± 0.12 | 1.02 ± 0.1 | 1.04 ± 0.068 | 1.1 ± 0.031 | 0.933 ± 0.085 | 0.299 ± 0.063 | 0.154 ± 0.042 | 1.1 ± 0.12 | 1.08 ± 0.12 | 1.13 ± 0.016 | 1.11 ± 0.12 | 1.17 ± 0.069 | 1.13 ± 0.041 | 0.655 ± 0.13 | 0.326 ± 0.088 |
| CAL120 BREAST | 0.961 ± 0.064 | 0.963 ± 0.028 | 0.952 ± 0.06 | 0.889 ± 0.068 | 0.667 ± 0.057 | 0.482 ± 0.036 | 0.14 ± 0.0021 | 0.121 ± 0.0033 | 0.95 ± 0.035 | 1.01 ± 0.033 | 0.997 ± 0.026 | 0.993 ± 0.042 | 0.997 ± 0.069 | 0.97 ± 0.014 | 0.683 ± 0.03 | 0.562 ± 0.016 |
| CASKI CERVIX | 0.955 ± 0.033 | 0.961 ± 0.028 | 1.04 ± 0.084 | 1.03 ± 0.082 | 0.507 ± 0.017 | 0.301 ± 0.016 | 0.168 ± 0.013 | 0.153 ± 0.0032 | 0.902 ± 0.072 | 0.929 ± 0.013 | 0.962 ± 0.019 | 0.943 ± 0.018 | 0.988 ± 0.062 | 0.976 ± 0.06 | 0.322 ± 0.026 | 0.188 ± 0.0057 |
| CHLA90 AUTONOMIC GANGLIA | 1.006 ± 0.0078 | 0.969 ± 0.05 | 0.984 ± 0.062 | 1.03 ± 0.019 | 1.2 ± 0.065 | 0.993 ± 0.028 | 0.697 ± 0.13 | 0.525 ± 0.041 | 0.983 ± 0.048 | 1.1 ± 0.24 | 0.977 ± 0.069 | 0.909 ± 0.045 | 0.962 ± 0.13 | 0.941 ± 0.12 | 0.62 ± 0.11 | 0.493 ± 0.12 |
| CME SYNOVIAL | 1.19 ± 0.11 | 1.25 ± 0.15 | 1.32 ± 0.19 | 1.27 ± 0.07 | 0.692 ± 0.1 | 0.271 ± 0.026 | 0.273 ± 0.019 | 0.304 ± 0.023 | 1.39 ± 0.037 | 1.39 ± 0.12 | 1.41 ± 0.074 | 1.28 ± 0.14 | 1.27 ± 0.08 | 1.18 ± 0.12 | 0.887 ± 0.1 | 0.285 ± 0.048 |
| COLO320DM LARGE INTESTINE | 1.1 ± 0.026 | 1.21 ± 0.045 | 1.14 ± 0.12 | 1.15 ± 0.1 | 1.06 ± 0.043 | 0.996 ± 0.03 | 0.803 ± 0.11 | 0.693 ± 0.03 | 1.09 ± 0.087 | 1.13 ± 0.066 | 1.07 ± 0.026 | 1.12 ± 0.076 | 1.05 ± 0.045 | 1.08 ± 0.11 | 0.517 ± 0.023 | 0.429 ± 0.05 |
